In patent US6352630B1, “Electrochemical system for determining blood coagulation time” (Asulab S.A., priority 1999, dated 2002):

Target: T1, thrombin enzyme (Homo sapiens, UniProt P00734)
T1 construct: from tissue; host or cells: whole blood (drop of blood, 10 µl)
Experiment: specificity of the specific reagent vis-à-vis the thrombin enzyme, progressive inhibition by r-hirudin
Assay type: biochemical
Settings: whole blood, thrombin inhibited by increasing r-hirudin
Procedure: In the experiments reported hereinafter, potentiostatic measurements were performed by chronoamperometry by means of a potentiostat PGP 201 connected to the Vm1 software of Radiometer (Copenhagen) allowing the following conditions to be obtained:
The surface of the working electrode of the sensor used is 0.035 cm^2 and the sample quantity, drop of blood, or reference solution is 10 μl. the recording of measurements starts 10 seconds after the sample is deposited. The oligopeptide used, hereinafter designated according to use by <>, selected from those indicated previously, is:
Given that whole blood contains extremely numerous constituents, the present experiment allows it to be shown that only the thrombin enzyme is capable of cutting the specific reagent substrate. The experiment is performed in the optimisation conditions defined by experiment 3 (namely PC/PS in the ratio 25/75, Hepes buffer and lyophilisation) starting with a dilution in equal parts of blood and buffer solution and progressively inhibiting the thrombin enzyme by increasing concentrations of r-hirudin (r-hirudin 2000 ATU/bulb, available from Pentapharm AG, Basel, Switzerland) which replace the buffer solution, preferably having checked that the factor Xa is not inhibited by r-hirudin. […]

Tos-Gly-Pro-Arg-3-chloro-4-hydroxyanilide, 2HCl [substrate]
cutting of the substrate, selectivity: selectively cut off by thrombin
